{"source": "patent US20130202629A1", "about": "“USES OF PHOSPHOLIPID CONJUGATES OF SYNTHETIC TLR7 AGONISTS” (The Regents of the University of California, priority 2010, published 2013)", "key": {"C57BL/6 mice [1]": {"system": "C57BL/6 mice", "format": "in vivo, mouse", "protocol": "Anti-OVA antibodies of the IgG subclasses (and in some embodiments specifically IgG1 and IgG2) were measured by ELISA, as described in Cho, H. J et al., “Immunostimulatory DNA-based vaccines induce cytotoxic lymphocyte activity by a T-helper cell-independent mechanism” [see comments], Nat. Each ELISA plate contained a titration of a previously quantitated serum to generate a standard curve. The titer of this standard was calculated as the highest dilution of serum that gave an absorbance reading that was double the background. The various sera samples were tested at a 1:100 dilution. The results are expressed in units per mL, calculated based on the units/mL of the standard serum, and represent the mean±SEM of five animals in each group. * and T denote P<0.05 and P<0.01 by One-way ANOVA compared to the mice immunized with OVA mixed with vehicle, respectively.\nSpleenocytes were prepared from the harvested spleens. […] The levels of IFNα in the culture supernatants were measured by ELISA (BD Bioscience PharMingen) as per the manufacturer's instructions (Kobayashi, H et al., Prepriming: a novel approach to DNA-based vaccination and immunomodulation”, Springer Semin. Immunopathol., 22:85 (2000)), and the results illustrated in FIG. 5C. Average total spleen cell number in each group were calculated and compared to the PBS-immunized groups to monitor the spleen cell proliferation. Data are mean±SEM of five mice and are representative of three independent experiments.\nThe efficiency of adjuvanticity was assessed by measurement of the levels and isotypes of the antigen-specific IgG that the vaccine induces, in particular IgG1 and IgG2 (Mosmann, T. R., and Coffman, R. L., ‘TH1 and TH2 cells: different patterns of lymphokine secretion lead to different functional properties’, Annual Review Immunology, 7:145 (1989)). […] ISS-ODN was used as a potent Th1 adjuvant positive control."}, "[2]": {"test": "Nanoparticle size and stability in PBS (Malvern Zetasizer)", "format": "physicochemical", "details": "50 μM or 100 μM", "protocol": "1V270 was dissolved in Phosal 50 PG (Phospholipid Gmbh, Cologne, Germany) to make a 20× concentrated solution. The Phosal 50 PG-1V270 mixture was further diluted (1:19) with nanopure water to make a 5% Phosal 50 PG:water suspension. The suspension was vortexed vigorously and sonicated in a sonicating bath for 10 minutes. The suspension was further sonicated with a probe sonicater (Branson Sonifier Cell Disrupter 185) at 30% power for a total of 30 seconds at 10 second intervals with 10 seconds rest between so as to not overheat the suspension. Finally, the suspension was passed through a 100 nm filter with syringe extruder a total of 10 times back and forth. The final nanoparticles were analyzed with a Malvern Zetasizer to check size distribution. The resulting particles may be referred to as nanoliposomes (a submicron bilayer lipid vesicle) (see Chapter 2 by Mozafari in: Liposomes, Methods in Molecular Biology, vol. 605, V. Weissing (ed.), Humana Press, the disclosure of which is incorporated by reference herein). Nanoliposomes provide more surface area and may increase solubility, bioavailability and targeting.\nUV-1V270 particles were diluted in PBS to 50 μM (A) or 100 μM (B) and particle size measured over time. […] The particle size of UV-1V270 in PBS was relatively constant with an average of about 110 nm regardless of concentration."}, "C57BL/6 mice [3]": {"system": "C57BL/6 mice", "test": "In vivo evaluation of adverse effects after OVA plus TLR7 conjugate immunization", "details": "OVA mixed with conjugate, 10 nmoles per mouse"}, "TLR7": {"system": "TLR7", "test": "IL-12 and IL-6 induction in BMDM from wild type and TLR7 deficient mice", "format": "cell-based, mouse", "details": "BMDM from TLR7 deficient (TLR7-KO) mice"}, "[4]": {"system": "Anthrax Sterne strain spores", "format": "in vivo, Bacillus anthracis"}, "Solubility": {"test": "Solubility", "format": "physicochemical"}, "[5]": {"system": "C57BL/6 mice or caspase 1 deficient", "test": "Induction of bladder inflammation by intravesical treatment", "format": "in vivo, mouse", "details": "intravesical 150 nmoles", "excerpt": "C57BL/6 mice or caspase 1 deficient were intravesically treated with 150 nmoles 1V270 or vehicle alone three times at two-day intervals. One set of mice was sacrificed twenty-four hours after the first treatment (FIG. 7). Another set of mice was sacrificed twenty-four hours after the third treatment. […] This inflammation was not detected in the caspase 1 deficient mice."}, "A/J mice": {"system": "A/J mice", "test": "Local (BALF) and systemic cytokine induction after intranasal administration", "format": "in vivo, mouse", "protocol": "1V270 induces local inflammation by pulmonary administration. To study the ability of phospholipid conjugated TLR7 to initiate the local inflammation, 6 to 8-week old female A/J mice were intranasally administered with 1V270 (0.5, 1, 2 or 4 nmol per animal) in 5% DMSO in PBS. Mice were sacrificed two hours after the administration and serum and bronchial lavage fluid (BALF) were collected. The levels of IL-6, IL-12 and TNFα were determined by Luminex beads assay.\nA/J mice received 10 nmol/animal 1V270 intranasally and BALF were collected 24, 48, and 72 hours after the administration. 1V270 could induce IL-12 and TNFα up to 48 hours (FIG. 10).\nBALF and plasma were collected 24 hours later and cytokine levels determined by multiplex luminex assay."}}, "data": [{"smiles": "CCCCCCCC/C=C\\CCCCCCCC(=O)OCC(COP(=O)(O)OCCNC(=O)c1ccc(Cn2c(=O)[nH]c3c(N)nc(OCCOC)nc32)cc1)OC(=O)CCCCCCC/C=C\\CCCCCCCC", "note": "(stereo not drawn) [Compound 6, 2-(4-((6-amino-2-(2-methoxyethoxy)-8-oxo-7H-purin-9(8H)-yl)methyl)benzamido)ethyl 2,3-bis(oleoyloxy)propyl phosphate]", "values": [{"measurement": "adjuvant activity when administered with the antigen ovalbumin", "setting": "C57BL/6 mice [1]; mouse, in vivo", "result": "potent adjuvant"}, {"measurement": "earliest induction of OVA-specific antibodies of the IG subclass (FIG. 5A)", "setting": "C57BL/6 mice [1]; s.c. 20 μg OVA + 10 nmol conjugate on days 0 and 7", "result": 14, "unit": "days"}, {"measurement": "OVA-specific IFN secretion by spleen cells", "setting": "C57BL/6 mice [1]; splenocytes of day 56 restimulated with OVA (FIG. 5C)", "result": "enhanced"}, {"measurement": "nanoparticle stability over time", "setting": "[2]", "result": "generally stable over time"}, {"measurement": "particle size, average diameter", "setting": "[2]; regardless of concentration", "result": "about 110 nm"}, {"measurement": "average body weights versus mice injected saline", "setting": "C57BL/6 mice [3]", "result": "No significant differences"}, {"measurement": "IL-12 and IL-6 induction in TLR7 deficient BMDM", "setting": "TLR7", "result": "little or no IL-12 and IL-6"}, {"measurement": "survival on day 30, long term experiment", "setting": "[4]; IRS mixed with 1 nmol, i.n. three times at two week intervals, challenge four weeks later", "result": 100, "unit": "%"}, {"measurement": "survival on day 15, short term experiment", "setting": "[4]; IRS with 1 nmol, single vaccination, challenge six days later", "result": "More than half"}, {"measurement": "effective dose, unformulated in DMSO", "setting": "[4]; adjuvant with IRS", "result": 1, "unit": "nmol"}, {"measurement": "efficacy compared with cholera toxin (CT) as adjuvant", "setting": "[4]; in vivo", "result": "slightly more effective than mice that received CT as an adjuvant"}, {"measurement": "protection from pulmonary anthrax infection", "setting": "[4]; mucosal immunization with killed anthrax spores", "result": "completely protected mice from pulmonary anthrax infection"}, {"measurement": "spore-specific cellular immune responses", "setting": "[4]; splenocytes of surviving mice cultured with IRS for 5 days", "result": "induced spore-specific Th1 and Th17 cellular immune responses"}, {"measurement": "solubility, in words", "setting": "Solubility; aqueous solution / suitable solvents for testing", "result": "difficulty in dissolution"}, {"measurement": "upper limit of solubility", "setting": "Solubility; in PBS", "result": "~100", "unit": "µM"}, {"measurement": "bladder inflammation (mononuclear cell infiltration)", "setting": "[5]; C57BL/6 mice, three times at two-day intervals", "result": "infiltration of mononuclear cells were observed and increased after the third treatment"}, {"measurement": "bladder inflammation in caspase 1 deficient mice", "setting": "[5]; caspase 1 deficient mice", "result": "not detected"}, {"measurement": "persistence of IL-12 and TNFα induction in BALF", "setting": "A/J mice; i.n. 10 nmol/animal", "result": "up to 48 hours"}, {"measurement": "local proinflammatory cytokines (IL-6, IL-12, TNFα) in BALF", "setting": "A/J mice; i.n. 2 to 4 nmol in 5% DMSO in PBS, two hours after administration", "result": "induced local proinflammatory cytokines in the BALF"}, {"measurement": "localized versus systemic cytokine release", "setting": "A/J mice; i.n., BALF and plasma 24 hours later", "result": "promoted localized cytokine release with minimal systemic side effects"}, {"measurement": "BALF cytokine levels compared with serum", "setting": "A/J mice; i.n., two hours after administration", "result": "higher than those in the serum"}]}]}
